As usually defined, the IC50 is the midpoint of a concentration-inhibition curve. What is called EC50 is the concentration that produces a half-maximal response.

In patent US11649255B2, “Indazoles as hematopoietic progenitor kinase 1 (HPK1) inhibitors and methods using same” (1st Biotherapeutics, Inc., priority 2020, dated 2023) one finds IC50 and EC50 data, which are given here for 19 molecules.

Assay [1] concerns the target recombinant human HPK1 (Homo sapiens (Human), UniProt Q92918). The experiment in a line: HPK1 kinase assay (ADP-Glo). It is filed as biochemical. The note with it: 25 μM ATP, MBP substrate. The gist of the method: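 Activity was read as ADP formed, detected by ADP-Glo luminescence after the reaction of 5 ng recombinant human HPK1 with MBP and ATP (stocks 0.5 μg/μl and 25 μM) for 40 min at 30 °C. Buffer was Tris pH 7.5 with MgCl2, BSA and DTT, with compound in 0.5% DMSO. IC50 came from inhibition curves.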
(In general: In ADP-Glo the light output rises with the ADP produced.)

Assay [2] has as its system human peripheral blood pan T cells. The experiment in a line: IFNγ and IL-2 analysis of human peripheral pan T cells. It is filed as cell-based. The settings on record: T-cell, CD3/CD28 bead stimulation, 100 nM Prostaglandin E2, 24 hr. A digest of the protocol: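 Human peripheral blood pan T cells (8×10^4) were preincubated 1 h with compounds plus 100 nM PGE2. They were then activated with anti-CD3/CD28 Dynabeads at a 1:3 cell:bead ratio. IFNγ and IL-2 were measured on a Meso Scale Discovery platform.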

Setting [3] is: IFNγ secretion, read-out: IFNγ (EC50).
[4] abbreviates: IL-2 secretion, read-out: IL-2 (EC50).

Where two headings read alike, the source gives them in different places.

Chain of recombinant human HPK1 (Q92918 whole entry): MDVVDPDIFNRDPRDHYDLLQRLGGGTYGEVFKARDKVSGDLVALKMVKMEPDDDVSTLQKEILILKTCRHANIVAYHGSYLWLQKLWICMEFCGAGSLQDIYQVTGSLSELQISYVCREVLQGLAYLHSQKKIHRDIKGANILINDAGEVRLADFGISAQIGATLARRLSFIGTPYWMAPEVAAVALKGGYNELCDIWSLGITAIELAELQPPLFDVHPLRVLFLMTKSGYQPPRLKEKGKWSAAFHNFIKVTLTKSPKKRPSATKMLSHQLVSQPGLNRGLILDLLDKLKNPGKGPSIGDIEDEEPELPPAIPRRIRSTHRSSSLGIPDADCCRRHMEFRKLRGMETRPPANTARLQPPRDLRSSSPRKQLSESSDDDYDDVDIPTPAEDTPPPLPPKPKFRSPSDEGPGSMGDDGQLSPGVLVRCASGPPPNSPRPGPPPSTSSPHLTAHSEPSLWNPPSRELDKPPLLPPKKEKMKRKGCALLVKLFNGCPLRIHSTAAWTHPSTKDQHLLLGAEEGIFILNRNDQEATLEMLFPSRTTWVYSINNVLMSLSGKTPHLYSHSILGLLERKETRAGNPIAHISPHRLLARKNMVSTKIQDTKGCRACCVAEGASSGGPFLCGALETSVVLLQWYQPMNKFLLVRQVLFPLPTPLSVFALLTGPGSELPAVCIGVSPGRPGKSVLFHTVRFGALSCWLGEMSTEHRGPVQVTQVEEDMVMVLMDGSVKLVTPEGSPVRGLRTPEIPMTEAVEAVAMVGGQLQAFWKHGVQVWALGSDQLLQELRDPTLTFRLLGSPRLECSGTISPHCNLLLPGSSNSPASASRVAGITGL

For `CSc1c(F)cc2[nH]ncc2c1-c1ccn2nc(NC(=O)[C@@H]3C[C@@H]3F)cc2c1` [Example 530, (1S,2S)-2-fluoro-N-(5-(6-fluoro-5-(methylthio)-1H-indazol-4-yl)pyrazolo[1,5-a]pyridin-2-yl)cyclopropane-1-carboxamide], in assay [1], the IC50 was < 0.1 µM. In addition, the 50% effective concentration (EC50) in assay [2] (setting [3]) and in assay [2] (setting [4]) was 0.2 to 1 µM in each case.

With `CCOc1c(F)c(CC)c(-c2ccn3nc(NC(=O)[C@@H]4C[C@@H]4F)cc3c2)c2cn[nH]c12` [Example 531, (1S,2S)-N-(5-(7-ethoxy-5-ethyl-6-fluoro-1H-indazol-4-yl)pyrazolo[1,5-a]pyridin-2-yl)-2-fluorocyclopropane-1-carboxamide], the IC50 in assay [1] was < 0.1 µM. In addition, the concentration giving a half-maximal response (EC50) is < 0.2 µM in assay [2] (setting [3]) and 0.2 to 1 µM in assay [2] (setting [4]).

For `CCc1c(F)c(F)c2[nH]ncc2c1-c1ccn2nc(NC(=O)[C@@H]3C[C@@H]3F)cc2c1` [Example 532, (1S,2S)-N-(5-(5-ethyl-6,7-difluoro-1H-indazol-4-yl)pyrazolo[1,5-a]pyridin-2-yl)-2-fluorocyclopropane-1-carboxamide], the IC50 in assay [1] is < 0.1 µM. Moreover, the EC50 in assay [2] (setting [3]) lay in the range of 0.2 to 1 µM.

Turning to `Cc1c(F)c(OCCO)c2[nH]ncc2c1-c1ccn2nc(NC(=O)[C@@H]3C[C@@H]3F)cc2c1` [Example 534, (1S,2S)-2-fluoro-N-(5-(6-fluoro-7-(2-hydroxyethoxy)-5-methyl-1H-indazol-4-yl)pyrazolo[1,5-a]pyridin-2-yl)cyclopropane-1-carboxamide], the half-maximal inhibitory concentration (IC50) in assay [1] is < 0.1 µM. Besides, the concentration for a half-maximal effect (EC50) in assay [2] (setting [3]) was < 0.2 µM.

For `CSc1c(F)c(F)c2[nH]ncc2c1-c1ccn2nc(NC(=O)[C@@H]3C[C@@H]3F)cc2c1` [Example 541, (1S,2S)-N-(5-(6,7-difluoro-5-(methylthio)-1H-indazol-4-yl)pyrazolo[1,5-a]pyridin-2-yl)-2-fluorocyclopropane-1-carboxamide], the 50% inhibitory concentration (IC50) in assay [1] is < 0.1 µM. In addition, the half-maximal effective concentration (EC50) in assay [2] (setting [3]) lay within 0.2 to 1 µM.

For the molecule `CCOc1c(F)c(SC)c(-c2ccn3nc(NC(=O)[C@@H]4C[C@@H]4F)cc3c2)c2cn[nH]c12` [Example 543, (1S,2S)-N-(5-(7-ethoxy-6-fluoro-5-(methylthio)-1H-indazol-4-yl)pyrazolo[1,5-a]pyridin-2-yl)-2-fluorocyclopropane-1-carboxamide], the half-inhibitory concentration (IC50) in assay [1] was < 0.1 µM. Moreover, the EC50 in assay [2] (setting [3]) is < 0.2 µM; in assay [2] (setting [4]) it was 0.2 to 1 µM.

For the molecule `CC(=O)N(C)c1c(F)c(Cl)c(-c2ccn3nc(NC(=O)[C@@H]4C[C@@H]4F)cc3c2)c2cn[nH]c12` [Example 552, (1S,2S)-N-(5-(5-chloro-6-fluoro-7-(N-methylacetamido)-1H-indazol-4-yl)pyrazolo[1,5-a]pyridin-2-yl)-2-fluorocyclopropane-1-carboxamide], the IC50 in assay [1] is < 0.1 µM. Besides, the concentration giving a half-maximal response (EC50) in assay [2] (setting [3]) and in assay [2] (setting [4]) was 0.2 to 1 µM each time.

In the case of `CN(C)C(=O)c1c(F)c(Cl)c(-c2ccn3nc(NC(=O)[C@@H]4C[C@@H]4F)cc3c2)c2cn[nH]c12` [Example 556, 5-chloro-6-fluoro-4-(2-((1S,2S)-2-fluorocyclopropane-1-carboxamido)pyrazolo[1,5-a]pyridin-5-yl)-N,N-dimethyl-1H-indazole-7-carboxamide], in assay [1], the IC50 was < 0.1 µM. Besides, the results for the concentration giving a half-maximal response (EC50) in assay [2] (setting [3]) and in assay [2] (setting [4]) were < 0.2 µM and 0.2 to 1 µM, respectively.

As to `Cc1c(F)c(N(C)CCO)c2[nH]ncc2c1-c1ccn2nc(NC(=O)[C@@H]3C[C@@H]3F)cc2c1` [Example 557, (1S,2S)-2-fluoro-N-(5-(6-fluoro-7-((2-hydroxyethyl)(methyl)amino)-5-methyl-1H-indazol-4-yl)pyrazolo[1,5-a]pyridin-2-yl)cyclopropane-1-carboxamide], the 50% inhibitory concentration (IC50) in assay [1] is < 0.1 µM. Also, the EC50 in assay [2] (setting [3]) was < 0.2 µM; in assay [2] (setting [4]), 0.2 to 1 µM.

Turning to `CSc1c(F)c(N(C)C)c2[nH]ncc2c1-c1ccn2nc(NC(=O)[C@@H]3C[C@@H]3F)cc2c1` [Example 558, (1S,2S)-N-(5-(7-(dimethylamino)-6-fluoro-5-(methylthio)-1H-indazol-4-yl)pyrazolo[1,5-a]pyridin-2-yl)-2-fluorocyclopropane-1-carboxamide], in assay [1], the IC50 was < 0.1 µM. The half-maximal effective concentration (EC50) was < 0.2 µM in assay [2] (setting [3]) and 0.2 to 1 µM in assay [2] (setting [4]).

For the molecule `CN(c1c(F)c(Cl)c(-c2ccn3nc(NC(=O)[C@@H]4C[C@@H]4F)cc3c2)c2cn[nH]c12)C1CC(O)C1` (stereo partly drawn) [Example 561, (1S,2S)-N-(5-(5-chloro-6-fluoro-7-((3-hydroxycyclobutyl)(methyl)amino)-1H-indazol-4-yl)pyrazolo[1,5-a]pyridin-2-yl)-2-fluorocyclopropane-1-carboxamide], the 50% inhibitory concentration (IC50) in assay [1] is < 0.1 µM. Besides, the EC50 in assay [2] (setting [3]) and in assay [2] (setting [4]) was 0.2 to 1 µM in each case.

For the molecule `CCN(C)c1c(F)c(C)c(-c2ccn3nc(NC(=O)[C@@H]4C[C@@H]4F)cc3c2)c2cn[nH]c12` [Example 563, (1S,2S)-N-(5-(7-(ethyl(methyl)amino)-6-fluoro-5-methyl-1H-indazol-4-yl)pyrazolo[1,5-a]pyridin-2-yl)-2-fluorocyclopropane-1-carboxamide], the half-inhibitory concentration (IC50) in assay [1] was < 0.1 µM. The EC50 in assay [2] (setting [3]) and in assay [2] (setting [4]) was 0.2 to 1 µM each time.

Take `CCN(C)c1c(F)c(Cl)c(-c2ccn3nc(NC(=O)[C@@H]4C[C@@H]4F)cc3c2)c2cn[nH]c12` [Example 564, (1S,2S)-N-(5-(5-chloro-7-(ethyl(methyl)amino)-6-fluoro-1H-indazol-4-yl)pyrazolo[1,5-a]pyridin-2-yl)-2-fluorocyclopropane-1-carboxamide]: the IC50 in assay [1] was < 0.1 µM. In addition, the EC50 in assay [2] (setting [3]) and in assay [2] (setting [4]) was 0.2 to 1 µM each time.

Consider `CN(C)c1c(F)c(C(F)(F)F)c(-c2ccn3nc(NC(=O)[C@@H]4C[C@@H]4F)cc3c2)c2cn[nH]c12` [Example 565, (1S,2S)-N-(5-(7-(dimethylamino)-6-fluoro-5-(trifluoromethyl)-1H-indazol-4-yl)pyrazolo[1,5-a]pyridin-2-yl)-2-fluorocyclopropane-1-carboxamide], for which the IC50 in assay [1] is < 0.1 µM. The EC50 in assay [2] (setting [3]) and in assay [2] (setting [4]) was 0.2 to 1 µM in each case.

Consider `CSc1c(F)cc2[nH]ncc2c1-c1ccn2nc(NC(=O)C3CC3)cc2c1` [Example 569, N-(5-(6-fluoro-5-(methylthio)-1H-indazol-4-yl)pyrazolo[1,5-a]pyridin-2-yl)cyclopropanecarboxamide], for which the IC50 in assay [1] was < 0.1 µM. Also, the figures for the concentration for a half-maximal effect (EC50) in assay [2] (setting [3]) and in assay [2] (setting [4]) were 0.2 to 1 µM and > 1 µM, respectively.

As to `Cc1c(F)c(C(=O)N(C)C)c2[nH]ncc2c1-c1ccn2nc(NC(=O)[C@@H]3C[C@@H]3F)cc2c1` [Example 570, 6-fluoro-4-(2-((1S,2S)-2-fluorocyclopropane-1-carboxamido)pyrazolo[1,5-a]pyridin-5-yl)-N,N,5-trimethyl-1H-indazole-7-carboxamide], in assay [1], the half-inhibitory concentration (IC50) was < 0.1 µM. In addition, the EC50 is < 0.2 µM in assay [2] (setting [3]) and 0.2 to 1 µM in assay [2] (setting [4]).

With `CCN(C)c1c(F)c(SC)c(-c2ccn3nc(NC(=O)[C@@H]4C[C@@H]4F)cc3c2)c2cn[nH]c12` [Example 577, (1S,2S)-N-(5-(7-(ethyl(methyl)amino)-6-fluoro-5-(methylthio)-1H-indazol-4-yl)pyrazolo[1,5-a]pyridin-2-yl)-2-fluorocyclopropane-1-carboxamide], in assay [1], the half-inhibitory concentration (IC50) is < 0.1 µM. Also, the results for the EC50 in assay [2] (setting [3]) and in assay [2] (setting [4]) were < 0.2 µM and 0.2 to 1 µM, respectively.

Take `Cc1c(F)c(Cl)c(-c2ccn3nc(NC(=O)[C@@H]4C[C@@H]4F)cc3c2)c2cn[nH]c12` [Example 579, (1S,2S)-N-(5-(5-chloro-6-fluoro-7-methyl-1H-indazol-4-yl)pyrazolo[1,5-a]pyridin-2-yl)-2-fluorocyclopropane-1-carboxamide]: in assay [1], the IC50 is < 0.1 µM. In addition, the 50% effective concentration (EC50) was < 0.2 µM in assay [2] (setting [3]) and > 1 µM in assay [2] (setting [4]).

On to `CCc1c(F)c(SCC#N)c2[nH]ncc2c1-c1ccn2nc(NC(=O)[C@@H]3C[C@@H]3F)cc2c1` [Example 588, (1S,2S)-N-(5-(7-((cyanomethyl)thio)-5-ethyl-6-fluoro-1H-indazol-4-yl)pyrazolo[1,5-a]pyridin-2-yl)-2-fluorocyclopropane-1-carboxamide], for which the IC50 in assay [1] was < 0.1 µM. Further, the EC50 in assay [2] (setting [3]) and in assay [2] (setting [4]) was < 0.2 µM each time.
